# Article PMC6155021, “Ancient and modern anticonvulsants act synergistically in a KCNQ potassium channel binding pocket” (Nature Communications, 2018)
# What was measured:
# [1] = cited from earlier work
# KCNQ2/3 channels [2] = target: T1, KCNQ2/3 channels (Homo sapiens, UniProt O43525+O43526); assay: Two-electrode voltage-clamp of KCNQ2/3 channels expressed in Xenopus laevis oocytes; assay type: cell-based; conditions: for Non-normalized tail current V0.5 / Normalized tail current V0.5 / Slope: KCNQ2/3
# Source text: (§1) cRNA transcripts encoding human KCNA1, KCNQ1, KCNQ2, KCNQ3, KCNQ4, or KCNQ5 were generated by in vitro transcription using the T7 polymerase message machine kit (Thermo Fisher Scientific), after vector linearization, from cDNA sub-cloned into plasmids incorporating X. laevis β-globin 5′ and 3′ UTRs flanking the coding region to enhance translation and cRNA stability. cRNA was quantified by spectrophotometry. Mutant cDNAs were generated by site-directed mutagenesis using a QuikChange kit according to manufacturer’s protocol (Stratagene, San Diego, CA) and corresponding cRNAs prepared as above. Defolliculated stage V and VI X. laevis oocytes (Ecocyte Bioscience, Austin, TX) were injected with Kv channel α subunit cRNAs (10 ng total per oocyte). Oocytes were incubated at 16 °C in Barth’s saline solution (Ecocyte) containing penicillin and streptomycin, with daily washing, for 3–5 days prior to two-electrode voltage-clamp (TEVC) recording.
# (§2) Oocytes were placed in a small-volume oocyte bath (Warner) and viewed with a dissection microscope. Chemicals were sourced from Sigma. Bath solution was (in mM): 96 NaCl, 4 KCl, 1 MgCl2, 1 CaCl2, 10 HEPES (pH 7.6). […] MTX (DMSO), sorbic acid (ethanol), and glutaconic acid (molecular grade H2O) were stored at −20 °C as 1 M stocks. Oleamide was stored as a 1 mM stock in ethanol at 4 °C. Palmitic acid was conjugated with bovine serum albumin as a 1 mM stock and stored at −20 °C. All compounds were diluted to working concentrations each experimental day. All compounds were introduced to the recording bath via gravity perfusion at a constant flow of 1 ml/min for 3 min prior to recording. Pipettes were of 1–2 MΩ resistance when filled with 3 M KCl. Currents were recorded in response to pulses between −80 and +40 mV at 20 mV intervals, or a single pulse to +40 mV, from a holding potential of −80 mV, to yield current–voltage relationships, current magnitude, and for quantifying activation rate. TEVC data analysis was performed with Clampfit10.2 (Molecular Devices) and Graphpad Prism software (GraphPad, San Diego, CA, USA); values are stated as mean ± SEM. Normalized tail currents were plotted versus prepulse voltage and fitted with a single Boltzmann function:1 g=A1-A2/1+expV12-Vy+A2, where g is the normalized tail conductance, A1 is the initial value at −∞, A2 is the final value at +∞, V1/2 is the half-maximal voltage of activation, and Vs the slope factor. Activation and deactivation kinetics were fitted with single-exponential functions.
# KCNQ2 [3] = target: T2, KCNQ2 (Homo sapiens, UniProt O43526); assay: Two-electrode voltage-clamp of homomeric KCNQ2 in Xenopus oocytes; assay type: cell-based; conditions: KCNQ2; 1 µM
# Source text: as §1, §2
# KCNQ3* (KCNQ3-A315T) = KCNQ3* (KCNQ3-A315T) (Homo sapiens, UniProt O43525, A315T); assay: cell-based; assay type: cell-based; conditions: KCNQ3*; 1 µM
# Sequence of KCNQ3* (KCNQ3-A315T) (O43525 whole entry A315T, looked up): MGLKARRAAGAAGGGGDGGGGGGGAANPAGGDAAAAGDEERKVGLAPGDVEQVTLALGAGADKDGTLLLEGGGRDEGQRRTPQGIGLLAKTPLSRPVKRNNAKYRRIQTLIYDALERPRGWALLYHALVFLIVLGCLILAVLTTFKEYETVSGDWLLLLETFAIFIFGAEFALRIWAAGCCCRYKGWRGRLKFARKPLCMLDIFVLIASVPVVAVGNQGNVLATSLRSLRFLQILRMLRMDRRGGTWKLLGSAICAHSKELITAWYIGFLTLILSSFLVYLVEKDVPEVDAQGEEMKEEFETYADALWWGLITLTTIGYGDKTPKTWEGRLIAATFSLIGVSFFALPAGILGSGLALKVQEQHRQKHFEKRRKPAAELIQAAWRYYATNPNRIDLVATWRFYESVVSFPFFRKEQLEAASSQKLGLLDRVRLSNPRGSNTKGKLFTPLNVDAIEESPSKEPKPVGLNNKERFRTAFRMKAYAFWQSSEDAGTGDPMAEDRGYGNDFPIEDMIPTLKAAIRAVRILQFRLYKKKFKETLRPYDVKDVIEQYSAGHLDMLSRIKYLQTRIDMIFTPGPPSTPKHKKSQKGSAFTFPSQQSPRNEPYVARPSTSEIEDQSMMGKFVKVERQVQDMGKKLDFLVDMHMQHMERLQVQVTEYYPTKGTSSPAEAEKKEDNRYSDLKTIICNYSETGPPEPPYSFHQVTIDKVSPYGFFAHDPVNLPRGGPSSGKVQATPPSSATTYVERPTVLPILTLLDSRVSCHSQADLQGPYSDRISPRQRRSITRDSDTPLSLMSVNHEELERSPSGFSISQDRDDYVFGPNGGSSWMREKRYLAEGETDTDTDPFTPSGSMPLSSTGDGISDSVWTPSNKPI
# Source text: as §1, §2
# KCNQ4 = KCNQ4 (Homo sapiens, UniProt P56696); assay: cell-based; assay type: cell-based; conditions: KCNQ4; 1 µM
# Source text: as §1, §2
# KCNQ5 = KCNQ5 (Homo sapiens, UniProt Q9NR82); assay: cell-based; assay type: cell-based; conditions: KCNQ5; 1 µM
# Source text: as §1, §2
# KCNQ2 [4] = target: T2, KCNQ2; design: method as in PMID 11466425; conditions: 10 µM RTG; cited from earlier work
# KCNQ2–5 = conditions: cited from earlier work
# KCNQ2/3 channels [5] = target: T1, KCNQ2/3 channels; conditions: previously found; cited from earlier work
smiles,measurement,setting,value
"CC(C)CC(N)=O [Isovaleramide, isovaleramide]",passage through biological membranes,[1],readily passes though biological membranes
same,mean Tmax,[1]; humans,0.5 to 0.75 h
same,mean elimination half-life,[1]; humans,2.5 h
same,well tolerated dose,[1]; humans,at least 2400 mg per day
"CCCCCCCC/C=C\CCCCCCCC(N)=O [Oleamide, oleamide]",Non-normalized tail current V0.5,KCNQ2/3 channels [2]; 0.1 µM,-41.9 ± 4.8 mV
same,Normalized tail current V0.5,KCNQ2/3 channels [2]; 0.1 µM,-41.8 ± 0.6 mV
same,Slope,KCNQ2/3 channels [2]; 0.1 µM,6.5 ± 0.9 mV
same,Non-normalized tail current V0.5,KCNQ2/3 channels [2]; 1 µM,-41.6 ± 4.3 mV
same,Normalized tail current V0.5,KCNQ2/3 channels [2]; 1 µM,-41.5 ± 0.8 mV
same,Slope,KCNQ2/3 channels [2]; 1 µM,6.7 ± 1.1 mV
same,Non-normalized tail current V0.5,KCNQ2/3 channels [2]; 10 µM,-39.4 ± 4.8 mV
same,Normalized tail current V0.5,KCNQ2/3 channels [2]; 10 µM,-39.2 ± 0.8 mV
same,Slope,KCNQ2/3 channels [2]; 10 µM,7.0 ± 0.8 mV
same,Non-normalized tail current V0.5,KCNQ2/3 channels [2]; 100 µM,-41.9 ± 3.5 mV
same,Normalized tail current V0.5,KCNQ2/3 channels [2]; 100 µM,-41.5 ± 0.8 mV
same,Slope,KCNQ2/3 channels [2]; 100 µM,6.6 ± 0.8 mV
same,Non-normalized tail current V0.5,KCNQ2/3 channels [2]; 500 µM,-37.6 ± 2.1 mV
same,Normalized tail current V0.5,KCNQ2/3 channels [2]; 500 µM,-37.9 ± 0.8 mV
same,Slope,KCNQ2/3 channels [2]; 500 µM,6.7 ± 0.6 mV
"CCCCCCCCCCCCCCCC(=O)O [Palmitic Acid, palmitic acid]",effect on voltage dependence of KCNQ2/3 activation (initial screen),"KCNQ2/3 channels [2]; 30 µM, tail currents at −30 mV",negative-shifted
same,Non-normalized tail current V0.5,KCNQ2/3 channels [2]; 0.1 µM,-43.6 ± 5.0 mV
same,Normalized tail current V0.5,KCNQ2/3 channels [2]; 0.1 µM,-44.3 ± 1.7 mV
same,Slope,KCNQ2/3 channels [2]; 0.1 µM,7.9 ± 1.7 mV
same,Non-normalized tail current V0.5,KCNQ2/3 channels [2]; 1 µM,-45.6 ± 5.5 mV
same,Normalized tail current V0.5,KCNQ2/3 channels [2]; 1 µM,-46.6 ± 1.7 mV
same,Slope,KCNQ2/3 channels [2]; 1 µM,7.4 ± 1.7 mV
same,Non-normalized tail current V0.5,KCNQ2/3 channels [2]; 3 µM,-45.1 ± 5.4 mV
same,Normalized tail current V0.5,KCNQ2/3 channels [2]; 3 µM,-46.5 ± 1.1 mV
same,Slope,KCNQ2/3 channels [2]; 3 µM,7.1 ± 1.1 mV
same,Non-normalized tail current V0.5,KCNQ2/3 channels [2]; 10 µM,-43.1 ± 4.9 mV
same,Normalized tail current V0.5,KCNQ2/3 channels [2]; 10 µM,-44.9 ± 0.9 mV
same,Slope,KCNQ2/3 channels [2]; 10 µM,6.8 ± 0.9 mV
same,Non-normalized tail current V0.5,KCNQ2/3 channels [2]; 30 µM,-43.5 ± 4.9 mV
same,Normalized tail current V0.5,KCNQ2/3 channels [2]; 30 µM,-44.3 ± 1.4 mV
same,Slope,KCNQ2/3 channels [2]; 30 µM,7.0 ± 1.1 mV
"CCOC(=O)Nc1ccc(NCc2ccc(F)cc2)cc1N [Retigabine, retigabine, reference compound]",effects on KCNQ2/3,KCNQ2/3 channels [2]; 1 µM alone,negligible effects
same,Non-normalized tail current V0.5,KCNQ2/3 channels [2]; 1 µM,-41.7 ± 2.3 mV
same,Normalized tail current V0.5,KCNQ2/3 channels [2]; 1 µM,-41.9 ± 0.7 mV
same,Non-normalized tail current V0.5,KCNQ2/3 channels [2]; 10 µM,-61.8 ± 4.8 mV
same,Normalized tail current V0.5,KCNQ2/3 channels [2]; 10 µM,-61.4 ± 1.1 mV
same,Slope,KCNQ2/3 channels [2]; 10 µM,6.7 ± 1.1 mV
same,shift of KCNQ2/3 activation V0.5,KCNQ2/3 channels [2]; RTG 10 µM,−13 mV
same,Non-normalized tail current V0.5,KCNQ2 [3],-51.6 ± 6.6 mV
same,Normalized tail current V0.5,KCNQ2 [3],-51.7 ± 0.7 mV
same,Non-normalized tail current V0.5,KCNQ3* (KCNQ3-A315T),-63.9 ± 7.7 mV
same,Normalized tail current V0.5,KCNQ3* (KCNQ3-A315T),-61.9 ± 2.2 mV
same,Non-normalized tail current V0.5,KCNQ4,-10.2 ± 7.5 mV
same,Normalized tail current V0.5,KCNQ4,-9.7 ± 1.1 mV
same,Non-normalized tail current V0.5,KCNQ5,-45.8 ± 2.8 mV
same,Normalized tail current V0.5,KCNQ5,-46.0 ± 0.9 mV
same,shift in midpoint voltage of activation,KCNQ2 [4],−24 mV
same,order of potency across KCNQ isoforms,KCNQ2–5,KCNQ3 > KCNQ2/3 > KCNQ2 > KCNQ4 > KCNQ5
"C/C=C/C=C/C(=O)O [Sorbic Acid, sorbic acid]",Non-normalized tail current V0.5,KCNQ2/3 channels [2]; 100 µM,-39.9 ± 3.0 mV
same,Normalized tail current V0.5,KCNQ2/3 channels [2]; 100 µM,-39.9 ± 0.9 mV
same,Slope,KCNQ2/3 channels [2]; 100 µM,4.2 ± 0.9 mV
"O=C1c2ccccc2C(Cc2ccncc2)(Cc2ccncc2)c2ccccc21 [XE991, reference compound]",effect on MTX-activated KCNQ2/3 current,"KCNQ2/3 channels [2]; wash-in of MTX followed by XE991, −60 mV",rapidly inhibited
CCCCC(=O)O [valeric acid],ability to activate KCNQ2/3 channels,KCNQ2/3 channels [5],inactive
